In patent US9139577B2, “Sulfoximine substituted quinazolines for pharmaceutical compositions” (Boehringer Ingelheim International GmbH, priority 2013, dated 2015) one finds IC50 and inhibition data, which are given here for 21 compounds.

For assay [1], the target named is MNK2a (Homo sapiens (Human), UniProt Q9HBH9). In words: MNK2a in vitro kinase assay (Assay 2), ADP-Glo. As to conditions: read-out: MNK2 IC50. The assay is classed as biochemical. (In general: ADP-Glo turns the ADP formed in a reaction into a luminescent signal.)
Assay [2] has as its target MNK1 (Homo sapiens (Human), UniProt Q9BUB5). In words: MNK1 in vitro kinase assay (Assay 3), Z'-LYTE. The assay is classed as biochemical. Particulars: for inhibition at 1 µM: compound concentration of 1 μM, read-out: MNK1 % INH. The text has this: C. MNK1 In vitro Kinase Assay (Assay 3)
MNK1 Data can be obtained from the MNK1 Z′-LYTE® assay. The MNK1 Z′-LYTE® screening protocol and assay conditions are also described on www.invitrogen.com.
The assay is described as follows:
The Z′-LYTE® biochemical assay employs a fluorescence-based, coupled-enzyme format and is based on the differential sensitivity of phosphorylated and non-phosphorylated peptides to proteolytic cleavage. The peptide substrate is labeled with two fluorophores—one at each end—that make up a FRET pair.
In the primary reaction, the kinase transfers the gamma-phosphate of ATP to a single tyrosine, serine or threonine residue in a synthetic FRET-peptide. In the secondary reaction, a site-specific protease recognizes and cleaves non-phosphorylated FRET-peptides. Phosphorylation of FRET-peptides suppresses cleavage by the Development Reagent. Cleavage disrupts FRET between the donor (i.e., coumarin) and acceptor (i.e., fluorescein) fluorophores on the FRET-peptide, whereas uncleaved, phosphorylated FRET-peptides maintain FRET. A ratiometric method, which calculates the ratio (the Emission Ratio) of donor emission to acceptor emission after excitation of the donor fluorophore at 400 nm, is used to quantitate reaction progress, as shown in the equation below.
ASSAY SETUP: The inhibition of kinase activity of MNK1a was assessed using pre-activated GST-MNK1a. The 2×MKNK1 (MNK1) mixture is prepared in 50 mM HEPES pH 7.5, 0.01% BRIJ-35, 10 mM MgCl2, 4 mM MnCl2, 1 mM EGTA, 2 mM DTT.
The Test Compounds are screened in 1% DMSO (final) in the well.
All Peptide/Kinase Mixtures are diluted to a 2× working concentration in the MNK1 Kinase Buffer.
All ATP Solutions are diluted to a 4× working concentration in Kinase Buffer (50 mM HEPES pH 7.5, 0.01% BRIJ-35, 10 mM MgCl2, 1 mM EGTA).
Development Reagent Solution:
The Development Reagent is diluted in Development Buffer
1. 2.5 μL—4× Test Compound
2. 5 μL—2× Peptide/Kinase Mixture
5. 60-minute Kinase Reaction incubation at room temperature
6. 5 μl—Development Reagent Solution
8. 60-minute Development Reaction incubation at room temperature
9. Read on fluorescence plate reader and analyze the data
The following equations are used for each set of data points: […]
Correction for Background Fluorescence: FlSample-FlTCFl Ctl
% Phosphorylation (% Phos): 1−((Emission Ratio×F100%)−C100%)/((C0%−C100%)+[Emission Ratio×(F100%−F0%)])*100%
% Inhibition: 1−(% PhosSample/% Phos0% Inhibition Ctl)*100
Fl=Fluorescence Intensity
C100%=Average Coumarin emission signal of the 100% Phos. Control
C0%=Average Coumarin emission signal of the 0% Phos. Control
F100%=Average Fluorescein emission signal of the 100% Phos. Control
F0%=Average Fluorescein emission signal of the 0% Phos. Control
SelectScreen® Kinase Profiling Service uses XLfit from IDBS.

Sequence of MNK1 (Q9BUB5 other isoform, or with tags, fused parts or gaps): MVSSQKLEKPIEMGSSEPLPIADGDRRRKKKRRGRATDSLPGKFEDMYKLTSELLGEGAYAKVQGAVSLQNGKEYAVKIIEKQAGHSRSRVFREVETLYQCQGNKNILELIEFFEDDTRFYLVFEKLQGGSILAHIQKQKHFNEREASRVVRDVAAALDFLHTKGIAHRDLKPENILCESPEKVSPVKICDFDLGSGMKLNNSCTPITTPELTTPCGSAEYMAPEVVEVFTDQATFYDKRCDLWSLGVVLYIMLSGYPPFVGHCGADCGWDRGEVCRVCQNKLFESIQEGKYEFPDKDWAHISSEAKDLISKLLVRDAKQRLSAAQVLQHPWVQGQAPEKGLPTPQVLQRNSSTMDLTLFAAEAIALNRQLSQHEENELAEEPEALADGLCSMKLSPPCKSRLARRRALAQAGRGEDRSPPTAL
Sequence of MNK2a (Q9HBH9 whole entry): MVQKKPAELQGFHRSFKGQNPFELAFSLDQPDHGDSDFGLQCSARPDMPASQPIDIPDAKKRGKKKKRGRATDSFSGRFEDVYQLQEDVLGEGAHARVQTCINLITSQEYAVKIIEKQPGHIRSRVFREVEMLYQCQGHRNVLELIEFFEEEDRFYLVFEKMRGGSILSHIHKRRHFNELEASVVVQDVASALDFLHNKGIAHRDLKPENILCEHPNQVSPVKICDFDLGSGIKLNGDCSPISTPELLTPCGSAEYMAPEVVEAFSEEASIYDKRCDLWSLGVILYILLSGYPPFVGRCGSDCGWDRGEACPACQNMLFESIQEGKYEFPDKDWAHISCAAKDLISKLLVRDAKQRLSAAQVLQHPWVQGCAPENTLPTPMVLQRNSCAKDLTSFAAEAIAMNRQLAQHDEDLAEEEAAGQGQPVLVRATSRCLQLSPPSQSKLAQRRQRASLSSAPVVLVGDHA

By IC50 is commonly meant the midpoint of a concentration-inhibition curve. For the compound `CC(CF)Oc1cc(F)ccc1Nc1ncnc2cc(N=S(C)(C)=O)cc(F)c12` (stereo not drawn) [Example 1.006], the IC50 in assay [1] amounted to 5 nM. Besides, the inhibition at 1 µM in assay [2] was determined as 96%.

For the compound `CCOC(Oc1ncccc1Nc1ncnc2cc(N=S(C)(C)=O)cc(C)c12)C(F)(F)F` (stereo not drawn) [Example 1.008], in assay [1], the IC50 was found to be 8 nM. In addition, the inhibition at 1 µM in assay [2] came out at 63%.

`O=S1(=Nc2cc(C(F)(F)F)c3c(Nc4ccc(F)cc4OC(CF)CF)ncnc3c2)CCNCC1` [Example 1.009]: the IC50 in assay [1] was determined as 26 nM. The inhibition at 1 µM in assay [2] is 64%.

Consider `Cc1cc(N=S2(=O)CCCC2)cc2ncnc(Nc3ccc(F)cc3OC(CF)CF)c12` [Example 1.011], for which the IC50 in assay [1] was 2 nM; in assay [2], 34 nM.

In the case of `Cc1cc(C(C)Oc2cc(C(N)=O)ccc2Nc2ncnc3cc(N=S(C)(C)=O)cc(C)c23)on1` (stereo not drawn) [Example 1.012], the IC50 in assay [1] is 6 nM. In addition, in assay [2], the inhibition at 1 µM is 96%.

Turning to `Cc1cc(N=S(C)(C)=O)cc2ncnc(Nc3ccc(C(N)=O)cc3OC(C)C)c12` [Example 1.014], in assay [1], the IC50 was determined as 5 nM. In addition, the inhibition at 1 µM in assay [2] is 97%.

In the case of `Cc1cc(N=S(C)(C)=O)cc2ncnc(Nc3ccc(F)cc3OC(C)CF)c12` (stereo not drawn) [Example 1.015], in assay [1], the IC50 amounted to 54 nM. For the same compound, in assay [2], the inhibition at 1 µM is 100%.

Consider `Cc1cc([C@@H](C)Oc2ncccc2Nc2ncnc3cc(N=S(C)(C)=O)cc(Cl)c23)on1` [Example 1.016], for which the IC50 in assay [1] was 1 nM; in assay [2], 53 nM.

For `CS(C)(=O)=Nc1cc(F)c2c(Nc3ccc(F)cc3OC(CF)CF)ncnc2c1` [Example 1.018], the IC50 in assay [1] turned out to be 6 nM. Further, in assay [2], the inhibition at 1 µM came to 93%.

On to `Cc1cc([C@@H](C)Oc2cc(F)ccc2Nc2ncnc3cc(N=S(C)(C)=O)cc(Cl)c23)on1` [Example 1.019], for which the results for the IC50 in assay [1] and in assay [2] were 1 nM and 54 nM, respectively.

As to `CC(Oc1cc(F)ccc1Nc1ncnc2cc(N=S(C)(C)=O)cc(F)c12)C(F)(F)F` (stereo not drawn) [Example 1.020], the IC50 in assay [1] was determined as 7 nM. In assay [2], the inhibition at 1 µM amounted to 80%.

For `O=S1(=Nc2cc(C(F)(F)F)c3c(Nc4ccc(F)cc4OC(CF)CF)ncnc3c2)CCOCC1` [Example 1.021], the IC50 in assay [1] was found to be 1 nM. The inhibition at 1 µM in assay [2] was determined as 52%.

On to `CS(C)(=O)=Nc1cc(C2CC2)c2c(Nc3ccc(F)cc3OC(CF)CF)ncnc2c1` [Example 1.022], for which the IC50 in assay [1] came to 3 nM. The inhibition at 1 µM in assay [2] worked out at 79%.

In the case of `CCOC(Oc1cc(F)ccc1Nc1ncnc2cc(N=S(C)(C)=O)cc(C)c12)C(F)(F)F` (stereo not drawn) [Example 1.023], the IC50 in assay [1] was determined as 8 nM. Further, the inhibition at 1 µM in assay [2] amounted to 65%.

For the compound `Cc1cc(N=S2(=O)CCCC2)cc2ncnc(Nc3ccc(F)cc3OC(C)C(C)(C)O)c12` (stereo not drawn) [Example 2.001], the values for the concentration for half-maximal inhibition (IC50) in assay [1] and in assay [2] were 5 nM and 228 nM, respectively.

`Cc1cc(C(C)Oc2cc(F)ccc2Nc2ncnc3cc(N=S(C)(C)=O)cc(F)c23)on1` (stereo not drawn) [Example 2.002]: the IC50 in assay [1] worked out at 6 nM. The inhibition at 1 µM in assay [2] worked out at 94%.

For `Cc1cc(N=S(C)(C)=O)cc2ncnc(Nc3ccc(F)cc3OC(C)C(C)(C)O)c12` (stereo not drawn) [Example 2.003], the IC50 in assay [1] is 13 nM. In addition, in assay [2], the inhibition at 1 µM was 76%.

On to `Cc1cc(N=S2(=O)CCCC2)cc2ncnc(Nc3ccc(F)cc3OCc3ccccc3)c12` [Example 2.004], for which the IC50 in assay [1] came out at 6 nM. In addition, the inhibition at 1 µM in assay [2] turned out to be 75%.

Regarding `Cc1cc(N=S2(=O)CCCC2)cc2ncnc(Nc3cccnc3OCC3CCOC3)c12` (stereo not drawn) [Example 2.005], the IC50 in assay [1] is 1 nM. For the same compound, the inhibition at 1 µM in assay [2] came to 96%.

As for `Cc1cc(N=S2(=O)CCC2)cc2ncnc(Nc3ccc(F)cc3O[C@H](C)C(F)(F)F)c12` [Example 2.006], the IC50 in assay [1] is 2 nM; in assay [2], 71 nM.

On to `Cc1cc([C@@H](C)Oc2cc(F)ccc2Nc2ncnc3cc(N=S(C)(C)=O)cc(C)c23)on1` [Example 2.008], for which the IC50 worked out at 1 nM in assay [1] and 25 nM in assay [2].
